Here are results for 30 molecules from patent publication US6437184B1, “Oxime compounds, their use, and intermediates for their production” (Sumitomo Chemical Company, Limited, priority 1997, dated 2002).

Each structure is given as a SMILES string. Read-outs that look alike come from different tables or passages of the source.

Common to all, as to type: in vivo
One experiment concerns Helicoverpa armigera. The experiment can be described thus: Insecticidal test against Helicoverpa armigera. The settings on record: 120 h, 100 ppm water dilution, cotton leaf fragment immersed 10 seconds, third-instar larvae, after 5 days. The protocol: A cotton leaf fragment (diameter, 5 cm) was immersed for 10 seconds Lin a water dilution (100 ppm) of a test compound formulation obtained according to Formulation Example 1. This fragment was taken out from the dilution, air dried, and placed in a polyethylene cup having a diameter of 5.5 cm. One third-instar larva of Helicoverpa armigera was set free in each cup. Ten larvae were used for each treatment. After 5 days, the mortality of the larvae was determined.

Another experiment concerns Plutella xylostella. Kind of experiment: Insecticidal test against Plutella xylostella. The settings on record: 96 h. The protocol: To a water dilution (50 ppm) of a test compound formulation obtained according to Formulation Example 1 was added a spreading agent (New RINOU available from Nihon Noyaku K.K.) at a dilution ratio of 3000-fold. The dilution was sprayed over potted cabbages at the four to five leaf stage at a volume of 25 ml per pot. After the treated plants were air dried, ten third-instar larvae of Plutella xylostella were set free on each pot. After 4 days, the mortality was determined.

Another experiment concerns Musca domestica. The experiment can be described thus: Insecticidal test against Musca domestica. The conditions noted are these: 24 h. As to the method:
In the bottom of a polyethylene cup having a diameter of 5.5 cm was placed a piece of filter paper having the same size. A 200-fold water dilution (500 ppm) of a test compound formulation obtained according to Formulation Example 1 was added dropwise at a volume of 0.7 ml on the filter paper, and about 30 mg of sucrose as a diet was uniformly placed thereon. Ten female adults of houseflies (Musca domestica) were set free in the cup, and the cup was kept covered. After 1 day, the survival of the adults was determined to determine the mortality.

A further experiment relates to Cydia pomonella. Kind of experiment: Insecticidal test against Cydia pomonella. The conditions noted are these: 168 h, 100 ppm water dilution, 0.2 ml on surface of artificial diet, eggs just before hatching, after 7 days. As to the method: A water dilution (100 ppm) of a test compound formulation obtained according to Formulation Example 1 was added dropwise at a volume of 0.2 ml and spread over the surface of an artificial diet having a weight of 3 g, which had been prepared in a 30 ml polyethylene cup. After air drying, placed in the cup was a piece of wax paper (about 2.5 cm square) having about 20 eggs which had been laid by Cydia pomonella and were just before hatching. Four pieces of such wax paper were used for each treatment. After 7 days, the mortality of the larvae was determined.

[1] abbreviates: 50 ppm water dilution sprayed over potted cabbages, 25 ml per pot, third-instar larvae, after 4 days, read-out: mortality.

The mortality is the percentage killed. As to `CC(C)(C)ON=CCOCCCCCOc1c(Cl)cc(OCC=C(Cl)Cl)cc1Cl` [(14), 5-(2,6-dichloro-4-(3,3-dichloro-2-propenyloxy)phenoxy)pentyloxyacetaldehyde O-tert-butyloxime], the mortality at 100 µg/mL in the experiment with Helicoverpa armigera was at least 80%.
On to `ClC(Cl)=CCON=CCCCCOc1c(Cl)cc(OCC=C(Cl)Cl)cc1Cl` [(17), 5-(2,6-dichloro-4-(3,3-dichloro-2-propenyloxy)phenoxy)pentanal O-(3,3-dichloro-2-propenyl)oxime], for which, in the experiment on Helicoverpa armigera, the mortality at 100 µg/mL was at least 80%.
On to `ClC(Cl)=CCON=CCCOc1c(Cl)cc(OCC=C(Cl)Cl)cc1Cl` [(75), 3-(2,6-dichloro-4-(3,3-dichloro-2-propenyloxy)phenoxy)propionaldehyde O-(3,3-dichloro-2-propenyl)oxime], for which the mortality at 50 µg/mL with Plutella xylostella (setting [1]) is at least 80%.
In turn, `CC(COCCCCCOc1c(Cl)cc(OCC=C(Cl)Cl)cc1Cl)=NOC(=O)NC(C)(C)C` [(180), 5-(2,6-dichloro-4-(3,3-dichloro-2-propenyloxy)phenoxy)pentyloxyacetone O-(N-tert-butylcarbamoyl)oxime] had a mortality at 50 µg/mL with Plutella xylostella of at least 80%. In addition, the mortality at 500 µg/mL in the experiment with Musca domestica was at least 80%.
For `ClC(Cl)=CCON=Cc1ccc(OCCOc2c(Cl)cc(OCC=C(Cl)Cl)cc2Cl)cc1` [(281), 4-(2-(2,6-dichloro-4-(3,3-dichloro-2-propenyloxy)phenoxy)-ethoxy)benzaldehyde O-(3,3-dichloro-2-propenyl)oxime], the mortality at 50 µg/mL with Plutella xylostella (setting [1]) is at least 80%.
For the molecule `ClC(Cl)=CCON=Cc1ccc(OCCCCOc2c(Cl)cc(OCC=C(Cl)Cl)cc2Cl)cc1` [(285), 4-(4-(2,6-dichloro-4-(3,3-dichloro-2-propenyloxy)phenoxy)butyloxy)benzaldehyde O-(3,3-dichloro-2-propenyl)oxime], in the experiment on Plutella xylostella (setting [1]), the mortality at 50 µg/mL was at least 80%.
Molecule `CCON=Cc1ccc(OCCCOc2c(Cl)cc(OCC=C(Cl)Cl)cc2Cl)cc1` [(288), 4-(3-(2,6-dichloro-4-(3,3-dichloro-2-propenyloxy)phenoxy)propyloxy)benzaldehyde O-ethyloxime] returned a mortality at 100 µg/mL in the experiment with Helicoverpa armigera of at least 80%.
The same measure, in the same setting: the same measure for `CC(C)(C)ON=Cc1ccc(OCCCOc2c(Cl)cc(OCC=C(Cl)Cl)cc2Cl)cc1` [(291), 4-(3-(2,6-dichloro-4-(3,3-dichloro-2-propenyloxy)phenoxy)propyloxy)benzaldehyde O-t-butyloxime]: at least 80%; for `C=CCON=Cc1ccc(COc2c(Cl)cc(OCC=C(Cl)Cl)cc2Cl)cc1` [(312), 4-(2,6-dichloro-4-(3,3-dichloro-2-propenyloxy)phenoxymethyl)benzaldehyde O-(2-propenyl)oxime]: at least 80%.
`CCC(C)ON=Cc1ccc(COc2c(Cl)cc(OCC=C(Cl)Cl)cc2Cl)cc1` (stereo not drawn) [(329), 4-(2,6-dichloro-4-(3,3-dichloro-2-propenyloxy)phenoxy)methylbenzaldehyde O-sec-butyloxime] came in with a mortality at 100 µg/mL in the experiment on Helicoverpa armigera of at least 80%.
As to `CC(=NO)c1ccc(OCCCCCOc2c(Cl)cc(OCC=C(Cl)Cl)cc2Cl)cc1` [(334), 4′-(5-(2,6-dichloro-4-(3,3-dichloro-2-propenyloxy)phenoxy)-pentyloxy)acetophenone oxime], the mortality at 50 µg/mL in the experiment with Plutella xylostella (setting [1]) is at least 80%.
Turning to `CCCCC(=NO)c1cccc(OCCCOc2c(Cl)cc(OCC=C(Cl)Cl)cc2Cl)c1` [(336), 3′-(3-(2,6-dichloro-4-(3,3-dichloro-2-propenyloxy)phenoxy)propyloxy)valerophenone oxime], in the experiment on Plutella xylostella (setting [1]), the mortality at 50 µg/mL is at least 80%.
`C=CCON=Cc1ccc(OCCCOc2c(Cl)cc(OCC=C(Cl)Cl)cc2Cl)cc1` [(342), 4-(3-(2,6-dichloro-4-(3,3-dichloro-2-propenyloxy)phenoxy)propyloxy)benzaldehyde O-allyloxime]: the mortality at 100 µg/mL with Helicoverpa armigera was at least 80%.
For `CCC(C)ON=Cc1ccc(CCOc2c(Cl)cc(OCC=C(Cl)Cl)cc2Cl)cc1` (stereo not drawn) [(355), 4-(2-(2,6-dichloro-4-(3,3-dichloro-2-propenyloxy)phenoxy)ethyl)benzaldehyde O-sec-butyloxime], the mortality at 100 µg/mL in the experiment with Helicoverpa armigera was at least 80%.
In the experiment on Helicoverpa armigera, `C=CCON=Cc1ccc(CCOc2c(Cl)cc(OCC=C(Cl)Cl)cc2Cl)cc1` [(357), 4-(2-(2,6-dichloro-4-(3,3-dichloro-2-propenyloxy)phenoxy)ethyl)benzaldehyde O-allyloxime] registered a mortality at 100 µg/mL of at least 80%.
For the molecule `ClC(Cl)=CCON=Cc1ccc(CCOc2c(Cl)cc(OCC=C(Cl)Cl)cc2Cl)cc1` [(358), 4-(2-(2,6-dichloro-4-(3,3-dichloro-2-propenyloxy)phenoxy)ethyl)benzaldehyde O-(3,3-dichloro-2-propenyl)oxime], the mortality at 100 µg/mL in the experiment with Helicoverpa armigera is at least 80%.
In the case of `C=CCON=Cc1ccc(CCCOc2c(Cl)cc(OCC=C(Cl)Cl)cc2Cl)cc1` [(370), 4-(3-(2,6-dichloro-4-(3,3-dichloro-2-propenyloxy)phenoxy)propyl)benzaldehyde O-allyl oxime], the mortality at 50 µg/mL with Plutella xylostella (setting [1]) is at least 80%.
As to `CCON=Cc1cccc(COc2c(Cl)cc(OCC=C(Cl)Cl)cc2Cl)c1` [(378), 3-((2,6-dichloro-4-(3,3-dichloro-2-propenyloxy)phenoxy)methyl)benzaldehyde O-ethyloxime], the mortality at 100 µg/mL in the experiment on Cydia pomonella was at least 80%. The mortality at 500 µg/mL with Musca domestica (500 ppm water dilution, 0.7 ml on filter paper with sucrose, female adults, after 1 day, read-out: mortality) was at least 80%.
`CC(C)CON=Cc1ccc(CCCOc2c(Cl)cc(OCC=C(Cl)Cl)cc2Cl)cc1` [(382), 4-(3-(2,6-dichloro-4-(3,3-dichloro-2-propenyloxy)phenoxy)propyl)benzaldehyde O-iso-butyloxime]: the mortality at 100 µg/mL in the experiment on Cydia pomonella was at least 80%.
`FC(F)(F)c1ccc(C=NOCCCOc2c(Cl)cc(OCC=C(Cl)Cl)cc2Cl)cc1` [(524), 4-(trifluoromethyl)benzaldehyde O-(3-(2,6-dichloro-4-(3,3-dichloro-2-propenyloxy)phenoxy)propyl)oxime]: the mortality at 50 µg/mL in the experiment with Plutella xylostella (setting [1]) was at least 80%.
The molecule `FC(F)(F)c1ccc(C=NOCCCCOc2c(Cl)cc(OCC=C(Cl)Cl)cc2Cl)cc1` [(529), 4-(trifluoromethyl)benzaldehyde O-(4-(2,6-dichloro-4-(3,3-dichloro-2-propenyloxy)phenoxy)butyl)oxime] showed a mortality at 100 µg/mL with Helicoverpa armigera of at least 80%.
Same read-out and setting: the same measure for `CC(=NOCCCCOc1c(Cl)cc(OCC=C(Cl)Cl)cc1Cl)c1ccc(C(F)(F)F)cc1` [(531), 4′-(trifluoromethyl)acetophenone O-(4-(2,6-dichloro-4-(3,3-dichloro-2-propenyloxy)phenoxy)butyl)oxime]: at least 80%.
Molecule `CC(=NOCCOc1c(Cl)cc(OCC=C(Cl)Cl)cc1Cl)c1ccc(C(F)(F)F)cc1` [(549), 4′-(trifluoromethyl)acetophenone O-(2-(2,6-dichloro-4-(3,3-dichloro-2-propenyloxy)phenoxy)ethyl)oxime] gave a mortality at 100 µg/mL with Cydia pomonella of at least 80%.
In the experiment on Cydia pomonella, `FC(F)(F)c1ccc(C=NOCCOc2c(Cl)cc(OCC=C(Cl)Cl)cc2Cl)cc1` [(550), 4-(trifluoromethyl)benzaldehyde O-(2-(2,6-dichloro-4-(3,3-dichloro-2-propenyloxy)phenoxy)ethyl)oxime] gave a mortality at 100 µg/mL of at least 80%.
`ClC(Cl)=CCOc1cc(Cl)c(OCCCCCON=C2CCSCC2)c(Cl)c1` [(572), tetrahydrothiopyran-4-one O-(5-(2,6-dichloro-4-(3,3-dichloro-2-propenyloxy)phenoxy)pentyl)oxime] displayed a mortality at 100 µg/mL in the experiment on Cydia pomonella of at least 80%.
Turning to `ClC(Cl)=CCOc1cc(Cl)c(OCCCCON=C2CCOCC2)c(Cl)c1` [(573), tetrahydro-4H-pyran-4-one O-(4-(2,6-dichloro-4-(3,3-dichloro-2-propenyloxy)phenoxy)butyl)oxime], the mortality at 50 µg/mL with Plutella xylostella (setting [1]) is at least 80%.
As to `ClC(Cl)=CCOc1cc(Cl)c(OCCCCCON=C2CCOCC2)c(Cl)c1` [(574), tetrahydro-4H-pyran-4-one O-(5-(2,6-dichloro-4-(3,3-dichloro-2-propenyloxy)phenoxy)pentyl)oxime], the mortality at 50 µg/mL with Plutella xylostella (setting [1]) is at least 80%. Also, in the experiment on Cydia pomonella, the mortality at 100 µg/mL is at least 80%.
In turn, `ClC(Cl)=CCOc1cc(Cl)c(OCCCCCCON=C2CCSCC2)c(Cl)c1` [(575), tetrahydrothiopyran-4-one O-(6-(2,6-dichloro-4-(3,3-dichloro-2-propenyloxy)phenoxy)hexyl)oxime] gave a mortality at 100 µg/mL with Cydia pomonella of at least 80%.
As for `O=[N+]([O-])c1ccc(C=NOCCCCOc2c(Cl)cc(OCC=C(Cl)Cl)cc2Cl)cc1` [(578), 4-nitrobenzaldehyde O-(4-(2,6-dichloro-4-(3,3-dichloro-2-propenyloxy)phenoxy)butyl)oxime], the mortality at 100 µg/mL in the experiment with Cydia pomonella is at least 80%.
For the molecule `CC(C)Oc1ccc(C=NOCCCCOc2c(Cl)cc(OCC=C(Cl)Cl)cc2Cl)cc1` [(579), 4-isopropoxybenzaldehyde O-(4-(2,6-dichloro-4-(3,3-dichloro-2-propenyloxy)phenoxy)butyl)oxime], in the experiment with Cydia pomonella, the mortality at 100 µg/mL is at least 80%.
